Results from the supplement of paper PMC11208160.

Test: recombinant UMI read abundance after kanamycin selection (control-corrected) (log10(CPM+1)); higher = more efficient recombination; extreme values may be limits of the assay; sequences stand for … in AGTGCAGAGAAAATCGGCCAGTTTTCTCTGCCTGCAGTCCGCATGCCGTGGGACCCCTTGGGTTCTAACCTGTTGCCTAGATTTATGCAGCGGACTGCCTTTCTCCCAAAGTGATAAACCGG…AGGTTGGTTTCACT; site = the 11-nt donor
How it was run: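 Counts of recombinant UMIs were reported as log10(CPM+1). Before that, they were converted to CPM, averaged over replicates and scaled using control-derived factors. They came from PCR across the donor–target junction after Escherichia coli carrying the pair library and target plasmid was plated on IPTG (0.07 mM) plus kanamycin, or unselected, in two replicates each.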
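Note: IS621 bridge recombinase in Escherichia coli cells against a fixed T5 target plasmid.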

Row | Sequence | recombinant UMI read abundance (log10)
1 | GGTCACGCATGGACCGGTTTTCCCGGTAATCCGTATTTGTC (site GGTCACGCTGA) | 2.56
2 | GGTCAGTCATGGACCGGTTTTCCCGGTAATCCGTATTTGGA (site GGTCAGTCTTC) | 0.503
3 | GGTCCAACATGGACCGGTTTTCCCGGTAATCCGTATTTGAT (site GGTCCAACTAT) | 0
4 | GGTCCAACATGGACCGGTTTTCCCGGTAATCCGTATTTGGA (site GGTCCAACTTA) | 0.00455
5 | GGTCCAACATGGACCGGTTTTCCCGGTAATCCGTATTTGGA (site GGTCCAACTTC) | 0.0919
6 | GGTCCAACATGGACCGGTTTTCCCGGTAATCCGTATTTGGA (site GGTCCAACTTG) | 0.0106
7 | GGTCCAACATGGACCGGTTTTCCCGGTAATCCGTATTTGGA (site GGTCCAACTTT) | 0.00506
8 | GGTCCAACATGGACCGGTTTTCCCGGTAATCCGTATTTGTC (site GGTCCAACTAA) | 0.015
9 | GGTCCAACATGGACCGGTTTTCCCGGTAATCCGTATTTGTC (site GGTCCAACTCA) | 0.00327
10 | GGTCCAACATGGACCGGTTTTCCCGGTAATCCGTATTTGTC (site GGTCCAACTGA) | 0
11 | GGTCCAACATGGACCGGTTTTCCCGGTAATCCGTATTTGTC (site GGTCCAACTTA) | 0.035
12 | GGTCCACCATGGACCGGTTTTCCCGGTAATCCGTATTTGTA (site GGTCCAACTTA) | 0.0242
13 | GGTCCACCATGGACCGGTTTTCCCGGTAATCCGTATTTGTA (site GGTCCACCTTA) | 0.0126
14 | GGTCCACCATGGACCGGTTTTCCCGGTAATCCGTATTTGTA (site GGTCCAGCTTA) | 0.0357
15 | GGTCCACCATGGACCGGTTTTCCCGGTAATCCGTATTTGTA (site GGTCCATCTTA) | 0.0355
16 | GGTCCAGCATGGACCGGTTTTCCCGGTAATCCGTATTTGAA (site GGTCCAGCTTT) | 0.307
17 | GGTCCAGCATGGACCGGTTTTCCCGGTAATCCGTATTTGTA (site GGTCCAACTTA) | 0
18 | GGTCCAGCATGGACCGGTTTTCCCGGTAATCCGTATTTGTA (site GGTCCACCTTA) | 0.00451
19 | GGTCCAGCATGGACCGGTTTTCCCGGTAATCCGTATTTGTA (site GGTCCAGCTTA) | 1.56
20 | GGTCCAGCATGGACCGGTTTTCCCGGTAATCCGTATTTGTA (site GGTCCATCTTA) | 0.0161
21 | GGTCCGTCATGGACCGGTTTTCCCGGTAATCCGTATTTGTT (site GGTACGTCTAA) | 0.00692
22 | GGTCCGTCATGGACCGGTTTTCCCGGTAATCCGTATTTGTT (site GGTCCGTCTAA) | 0.00423
23 | GGTCCGTCATGGACCGGTTTTCCCGGTAATCCGTATTTGTT (site GGTGCGTCTAA) | 0.0122
24 | GGTCCGTCATGGACCGGTTTTCCCGGTAATCCGTATTTGTT (site GGTTCGTCTAA) | 0.0141
25 | GGTCGAACATGGACCGGTTTTCCCGGTAATCCGTATTTGTA (site GGTCAAACTTA) | 0.0946

Row | Sequence | recombinant UMI read abundance (log10)
26 | GGTCGAACATGGACCGGTTTTCCCGGTAATCCGTATTTGTA (site GGTCCAACTTA) | 0.00781
27 | GGTCGAACATGGACCGGTTTTCCCGGTAATCCGTATTTGTA (site GGTCGAACTTA) | 0.761
28 | GGTCGAACATGGACCGGTTTTCCCGGTAATCCGTATTTGTA (site GGTCTAACTTA) | 0.00734
29 | GGTGACCCATGGACCGGTTTTCCCGGTAATCCGTATTTGCA (site GGTGACCCTTG) | 0.706
30 | GGTGCAGCATGGACCGGTTTTCCCGGTAATCCGTATTTGGA (site GGTGCAGCTTC) | 0.0152
31 | GGTGCCACATGGACCGGTTTTCCCGGTAATCCGTATTTGGT (site GGTGCCACTAC) | 0.406
32 | GGTGCGACATGGACCGGTTTTCCCGGTAATCCGTATTTGTT (site GGTGCGACTAA) | 0.345
33 | GGTGCTACATGGACCGGTTTTCCCGGTAATCCGTATTTGGA (site GGTGCTACTTC) | 0.449
34 | GGTGGTCCATGGACCGGTTTTCCCGGTAATCCGTATTTGCC (site GGTGGTCCTGG) | 0
35 | GGTGTCCCATGGACCGGTTTTCCCGGTAATCCGTATTTGAA (site GGTGTCCCTTT) | 0.0114
36 | GGTGTGGCATGGACCGGTTTTCCCGGTAATCCGTATTTGTT (site GGTGTGGCTAA) | 0.894
37 | GGTGTTTCATGGACCGGTTTTCCCGGTAATCCGTATTTGGT (site GGTGTTTCTAC) | 0.556
38 | GGTTAAACATGGACCGGTTTTCCCGGTAATCCGTATTTGGT (site GGTTAAACTAC) | 0.137
39 | GGTTAGGCATGGACCGGTTTTCCCGGTAATCCGTATTTGAG (site GGTTAGGCTCT) | 0.952
40 | GGTTATCCATGGACCGGTTTTCCCGGTAATCCGTATTTGCT (site GATTATCCTAG) | 0
41 | GGTTATCCATGGACCGGTTTTCCCGGTAATCCGTATTTGCT (site GCTTATCCTAG) | 0.196
42 | GGTTATCCATGGACCGGTTTTCCCGGTAATCCGTATTTGCT (site GGTTATCCTAG) | 0
43 | GGTTATCCATGGACCGGTTTTCCCGGTAATCCGTATTTGCT (site GTTTATCCTAG) | 0
44 | GGTTCGCCATGGACCGGTTTTCCCGGTAATCCGTATTTGCG (site GGTTCGCCTCG) | 0
45 | GGTTGCCCATGGACCGGTTTTCCCGGTAATCCGTATTTGAT (site GATTGCCCTAT) | 0.0175
46 | GGTTGCCCATGGACCGGTTTTCCCGGTAATCCGTATTTGAT (site GCTTGCCCTAT) | 0.0066
47 | GGTTGCCCATGGACCGGTTTTCCCGGTAATCCGTATTTGAT (site GGTTGCCCTAT) | 0.0592
48 | GGTTGCCCATGGACCGGTTTTCCCGGTAATCCGTATTTGAT (site GTTTGCCCTAT) | 0.0119
49 | GGTTTACCATGGACCGGTTTTCCCGGTAATCCGTATTTGGG (site GGTTTACCTCC) | 0.0308
50 | GTAAAAGCATGGACCGGTTTTCCCGGTAATCCGTATTTGCC (site GTAAAAGCTGG) | 1.27

Row | Sequence | recombinant UMI read abundance (log10)
51 | GTAAAGTCATGGACCGGTTTTCCCGGTAATCCGTATTTGCA (site GTAAAGTCTTG) | 2.95
52 | GTAACTCCATGGACCGGTTTTCCCGGTAATCCGTATTTGTC (site GTAACTCCTGA) | 1.71
53 | GTAAGAACATGGACCGGTTTTCCCGGTAATCCGTATTTGGC (site GTAAGAACTGC) | 2.33
54 | GTAAGAACATGGACCGGTTTTCCCGGTAATCCGTATTTGGC (site GTCAGAACTGC) | 0
55 | GTAAGAACATGGACCGGTTTTCCCGGTAATCCGTATTTGGC (site GTGAGAACTGC) | 1.09
56 | GTAAGAACATGGACCGGTTTTCCCGGTAATCCGTATTTGGC (site GTTAGAACTGC) | 1.13
57 | GTAAGCCCATGGACCGGTTTTCCCGGTAATCCGTATTTGTC (site GTAAGCCCTGA) | 1.98
58 | GTAAGCGCATGGACCGGTTTTCCCGGTAATCCGTATTTGGC (site GTAAGCGCTGC) | 3.26
59 | GTAAGTACATGGACCGGTTTTCCCGGTAATCCGTATTTGGA (site GTAAGTACTTC) | 1.17
60 | GTAATAACATGGACCGGTTTTCCCGGTAATCCGTATTTGGC (site GTAATAACTGC) | 2.43
61 | GTAATACCATGGACCGGTTTTCCCGGTAATCCGTATTTGCA (site GTAATACCTTG) | 0
62 | GTAATCGCATGGACCGGTTTTCCCGGTAATCCGTATTTGCG (site GTAATCGCTCG) | 1.95
63 | GTAATCGCATGGACCGGTTTTCCCGGTAATCCGTATTTGCG (site GTACTCGCTCG) | 0.0396
64 | GTAATCGCATGGACCGGTTTTCCCGGTAATCCGTATTTGCG (site GTAGTCGCTCG) | 0.00978
65 | GTAATCGCATGGACCGGTTTTCCCGGTAATCCGTATTTGCG (site GTATTCGCTCG) | 0.00488
66 | GTAATGGCATGGACCGGTTTTCCCGGTAATCCGTATTTGAA (site GTAATGGCTTT) | 2.26
67 | GTAATTTCATGGACCGGTTTTCCCGGTAATCCGTATTTGCA (site GTAATTTCTTG) | 1.4
68 | GTACACGCATGGACCGGTTTTCCCGGTAATCCGTATTTGCT (site GTACACGCTAG) | 2.16
69 | GTACATTCATGGACCGGTTTTCCCGGTAATCCGTATTTGAT (site GTACATTCTAT) | 2.04
70 | GTACGCCCATGGACCGGTTTTCCCGGTAATCCGTATTTGAT (site GTACGCCCTAT) | 0.747
71 | GTACGCCCATGGACCGGTTTTCCCGGTAATCCGTATTTGCA (site GTACGCCCTTG) | 1.16
72 | GTACGCTCATGGACCGGTTTTCCCGGTAATCCGTATTTGAA (site GTACGCTCTTT) | 2.11
73 | GTACTAACATGGACCGGTTTTCCCGGTAATCCGTATTTGGC (site GTACTAACTGC) | 2.4
74 | GTACTACCATGGACCGGTTTTCCCGGTAATCCGTATTTGTG (site GTACTACCTCA) | 0.00602
75 | GTACTCGCATGGACCGGTTTTCCCGGTAATCCGTATTTGTC (site GTACTCGCTGA) | 2.42
